Here are results for 25 compounds from patent US20240415918A1, “Polypeptide and its use as a CCK receptor agonist/antagonist” (Centre for Regenerative Medicine & Health, Hong Kong …, priority 2021, published 2024).

*1 amine or outer side, *2 acyl side, *3 side chain or, on linkers, in order; H or OH if unused. Where a SMILES comes first, the peptide text is derived from it. [ ]: non-standard residue; d: D form. X1 = O=C([C@@]1(O)C[C@@H](O)[C@H](N[*:1])C([C@@H](O)[C@@H](O)CO)O1)[*:2]; NMeW = CN[C@@H](Cc1c[nH]c2ccccc12)C(=O)O; Phe(3-Br) = N[C@@H](Cc1cccc(Br)c1)C(=O)O; Aad = N[C@@H](CCCC(=O)O)C(=O)O; Aoc(2) = CCCCCC[C@H](N)C(=O)O; Nle = CCCC[C@H](N)C(=O)O

In this test the target is T1, CCK-B receptors (CHO-CCK) (Homo sapiens, UniProt P32239).
T1 construct: expressed in transfected cells; host or cells: CHO (CHO-CCK model cells)
T1 sequence (P32239 1-447): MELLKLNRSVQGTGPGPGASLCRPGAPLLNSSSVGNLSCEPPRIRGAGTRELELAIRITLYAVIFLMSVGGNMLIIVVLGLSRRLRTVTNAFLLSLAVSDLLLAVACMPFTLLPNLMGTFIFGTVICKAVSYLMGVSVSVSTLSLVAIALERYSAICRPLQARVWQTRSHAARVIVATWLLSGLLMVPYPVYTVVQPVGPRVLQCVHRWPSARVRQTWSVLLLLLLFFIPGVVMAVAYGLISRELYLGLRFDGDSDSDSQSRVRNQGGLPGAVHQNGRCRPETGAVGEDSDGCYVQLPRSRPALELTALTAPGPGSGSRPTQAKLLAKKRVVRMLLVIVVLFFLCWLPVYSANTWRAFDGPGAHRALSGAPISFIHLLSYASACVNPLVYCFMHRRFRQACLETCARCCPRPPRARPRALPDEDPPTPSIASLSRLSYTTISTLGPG
Description: Calcium flux (Fluo-8) agonist test on CHO-CCK model cells. The settings on record: for EC50 / % Act-Ave @ 1 nM / % Act-Ave @ 50 nM: CHO-CCK cells; for Agonistic Activity (%) at 10 μM: compound at 10 μM, percentage of signal of 20 nM CCK8 alone; for % Act-Ave @ 1 nM: compound at 1 nM; for % Act-Ave @ 50 nM: compound at 50 nM. In kind it is cell-based. How it is done:
• To detect changes in intracellular calcium ion concentration after the compound acts on model cells containing CCK-B receptors (CHO-CCK).
• 1. The compound was formulated to a 10 mM mother liquor with DMSO, and then diluted into a series of 9 concentrations with a 3-fold gradient to form a 1000× stock solution.
2.1 Agonist • The compound stock solution was subjected to 200-fold dilution with HHBS buffer to form a 5× working solution.
• 1. Plate CHO-CCK cells in a 96-well plate with media containing 1% FBS, 30,000 cells/well/100 μL, and incubate overnight at 37° C. • 2. Prepare 1×Fluo-8 analysis buffer: mix 9 mL of HHBS, 1 mL of 10× Pluronic F127 Plus and 20 μL of Fluo-8 thoroughly for later use. • 3. Add Fluo-8 dye working solution to the cell plate, 100 μL/well. First incubate in a 37° C. incubator for 30 min, and then take it out and incubate at room temperature in the dark for 30 min. • 4. In the process of incubating cells, the compounds to be detected were prepared with HHBS. • 5.
The agonism/antagonism EC50 of the compound can be obtained by plotting the fitting curve with the agonism/antagonism percentage as Y-axis and the concentration of the compound as X-axis.
For orientation: Calcium flux is commonly read through the fluorescence of an indicator in the cells.

For `CS(=O)(=O)CC[C@H](NC(=O)[C@H](N)Cc1c[nH]c2ccccc12)C(=O)N[C@@H](CC(=O)O)C(=O)N[C@@H](Cc1cccc(I)c1)C(N)=O` [HT-62, D-Trp-Met(O2)-Asp-Phe(3-I)-NH2], the “Agonistic Activity (%) at 10 μM” value turned out to be 4.26%. The EC50 – broadly, the midpoint of the concentration-response curve – (compound alone, 100% = 20 nM CCK8) amounted to 4.37 µM. With `C[S+]([O-])CC[C@H](NC(=O)[C@H](N)Cc1c[nH]c2ccccc12)C(=O)N[C@@H](CC(=O)O)C(=O)N[C@@H](Cc1ccc(Br)cc1)C(N)=O` (stereo partly drawn) [HT-51, D-Trp-Met(O)-Asp-Phe(4-Br)-NH2], the “Agonistic Activity (%) at 10 μM” value is on record as 17.18%. On to `[2H]c1ccc(C[C@H](NC(=O)[C@H](CC(=O)OC)NC(=O)[C@H](CCS(C)(=O)=O)NC(=O)[C@H](N)Cc2c[nH]c3ccccc23)C(N)=O)cc1` [HT-138, D-Trp-Met(O2)-Asp(Ome)-Phe(4-F)-NH2], for which the “Agonistic Activity (%) at 10 μM” value was −3.84%. Take `CSCC[C@H](NC(=O)[C@H](CC(=O)O)NC(=O)[C@@H](N)Cc1ccccc1)C(=O)N[C@@H](Cc1c[nH]c2ccccc12)C(=O)O` [HT-1, Phe-Asp-Met-Trp-COOH] (H-FDMW-OH): where the note is “compound alone, bound in μM”, the EC50 is > 10 µM. As for `CSCC[C@H](NC(=O)[C@H](CC(=O)O)NC(=O)[C@H](Cc1ccccc1)NC(C)=O)C(=O)N[C@H](Cc1c[nH]c2ccccc12)C(N)=O` [HT-6, Ac-Phe-Asp-Met-D-Trp-NH2] (Ac-FDM[dW]-NH2), the EC50 (compound alone, bound in μM) is > 10 µM.

As for `CCCCCC[C@H](NC(C)=O)C(=O)N[C@@H](CC(=O)O)C(=O)N[C@@H](Cc1cccc(Br)c1)C(N)=O` [HT-281, Ac-Oa-Asp-Phe(3-Br)-NH2] (Ac-[Aoc(2)]-Asp-[Phe(3-Br)]-NH2), the “% Act-Ave @ 1 nM” value is given as −0.09% and the “% Act-Ave @ 50 nM” value came to 0.03%.

Regarding `CSCC[C@H](NC(=O)[C@H](CC(=O)O)NC(=O)[C@H](Cc1ccccc1)NC(C)=O)C(=O)N[C@@H](Cc1c[nH]c2ccccc12)C(=O)O` [HT-2, Ac-Phe-Asp-Met-Trp-COOH], the EC50 (compound alone, bound in μM) was > 10 µM. With `COC(=O)C[C@H](NC(=O)[C@H](CC[S+](C)[O-])NC(=O)[C@H](N)Cc1c[nH]c2ccccc12)C(=O)N[C@@H](Cc1cc(Cl)cc(Cl)c1)C(N)=O` (stereo partly drawn) [HT-123, D-Trp-Met(O)-Asp(Ome)-Phe(3,5-DiCl)-NH2], the “Agonistic Activity (%) at 10 μM” value turned out to be 0.84%. As to `COC(=O)C[C@H](NC(=O)[C@H](CCS(C)(=O)=O)NC(=O)[C@H](N)Cc1c[nH]c2ccccc12)C(=O)N[C@@H](Cc1ccc(I)cc1)C(N)=O` [HT-139, D-Trp-Met(O2)-Asp(Ome)-Phe(4-I)-NH2], the “Agonistic Activity (%) at 10 μM” value was 13.02%. With `CCCC[C@H](NC(=O)[C@H](Cc1c[nH]c2ccccc12)N(C)C(=O)[C@@]1(O)C[C@@H](O)[C@H](NC(C)=O)C([C@@H](O)[C@@H](O)CO)O1)C(=O)N[C@@H](CC(=O)O)C(=O)N[C@@H](Cc1cccc(Br)c1)C(N)=O` (stereo partly drawn) [HT-274, Sia-(N-Me-Trp)-Nle Asp-Phe(3-Br)-NH2] (Ac-[X1][NMeW][Nle]D[Phe(3-Br)]-NH2), the “% Act-Ave @ 1 nM” value is listed as 0.10% and the “% Act-Ave @ 50 nM” value worked out at 72.88%.

Turning to `CS(=O)(=O)CC[C@H](NC(=O)[C@H](N)Cc1c[nH]c2ccccc12)C(=O)N[C@@H](CC(=O)OCCNc1cccc2c(O)cccc12)C(=O)N[C@@H](Cc1cccc(F)c1)C(N)=O` [HT-163, D-Trp-Met(O2)-Asp(EDANS)-Phe(3-F)-NH2], the “Agonistic Activity (%) at 10 μM” value was 2.64%. Regarding `COC(=O)C[C@H](NC(=O)[C@H](CCS(C)(=O)=O)NC(=O)[C@H](N)Cc1c[nH]c2ccccc12)C(=O)N[C@@H](Cc1ccccc1F)C(N)=O` [HT-127, D-Trp-Met(O2)-Asp(Ome)-Phe(2-F)-NH2], the “Agonistic Activity (%) at 10 μM” value is recorded as 1.79%. For `CCCC[C@H](NC(=O)[C@H](Cc1c[nH]c2ccccc12)N(C)C(=O)[C@@H](N)CCC(=O)O)C(=O)N[C@@H](CCCC(=O)O)C(=O)N[C@@H](Cc1cccc(Br)c1)C(N)=O` [HT-277, Glu-(N-Me-Trp)-Nle-Aa-Phe(3-Br)-NH2] (H-E[NMeW][Nle][Aad][Phe(3-Br)]-NH2), the “% Act-Ave @ 1 nM” value is given as −0.13% and the “% Act-Ave @ 50 nM” value turned out to be 13.46%. For `COC(=O)C[C@H](NC(=O)[C@H](CCSC)NC(=O)[C@H](N)Cc1c[nH]c2ccccc12)C(=O)N[C@@H](Cc1ccccc1)C(N)=O` [HT-18, D-Trp-Met-Asp(OMe)-Phe-NH2], the “Agonistic Activity (%) at 10 μM” value was found to be 7.59%. `COC(=O)C[C@H](NC(=O)[C@H](CC[S+](C)[O-])NC(=O)[C@H](N)Cc1c[nH]c2ccccc12)C(=O)N[C@@H](Cc1cccc(F)c1)C(N)=O` (stereo partly drawn) [HT-112, D-Trp-Met(O)-Asp(Ome)-Phe(3-F)-NH2]: the “Agonistic Activity (%) at 10 μM” value is recorded as 2.89%. Take `CSCC[C@H](NC(=O)[C@H](N)Cc1c[nH]c2ccccc12)C(=O)N[C@@H](CC(=O)O)C(=O)N[C@@H](Cc1ccc(N=[N+]=[N-])cc1)C(N)=O` [HT-31, D-Trp-Met-Asp-Phe(4-N3)-NH2]: the “Agonistic Activity (%) at 10 μM” value turned out to be 6.07%. For `CS(=O)(=O)CC[C@H](NC(=O)[C@H](N)Cc1c[nH]c2ccccc12)C(=O)N[C@@H](CC(=O)O)C(=O)N[C@@H](Cc1ccc(I)cc1)C(N)=O` [HT-71, D-Trp-Met(O2)-Asp-Phe(4-I)-NH2], the “Agonistic Activity (%) at 10 μM” value came out at 13.13%. As for `CCCC[C@H](NC(C)=O)C(=O)N[C@@H](CC(=O)O)C(=O)N[C@@H](Cc1cccc(Br)c1)C(N)=O` [HT-283, Ac-Nle-Asp-Phe(3-Br)-NH2] (Ac-[Nle]-Asp-[Phe(3-Br)]-NH2), the “% Act-Ave @ 1 nM” value is −0.04% and the “% Act-Ave @ 50 nM” value was −0.03%. In the case of `C[S+]([O-])CC[C@H](NC(=O)[C@H](N)Cc1c[nH]c2ccccc12)C(=O)N[C@@H](CC(=O)O)C(=O)N[C@@H](Cc1cc(F)cc(F)c1)C(N)=O` (stereo partly drawn) [HT-56, D-Trp-Met(O)-Asp-Phe(3,5-DiF)-NH2], the “Agonistic Activity (%) at 10 μM” value turned out to be 43.98%. Turning to `COC(=O)C[C@H](NC(=O)[C@H](CC[S+](C)[O-])NC(=O)[C@H](N)Cc1c[nH]c2ccccc12)C(=O)N[C@@H](Cc1ccc(N=[N+]=[N-])cc1)C(N)=O` (stereo partly drawn) [HT-116, D-Trp-Met(O)-Asp(Ome)-Phe(4-N3)-NH2], the “Agonistic Activity (%) at 10 μM” value came to 10.90%. On the same count and under the same terms, with `COC(=O)C[C@H](NC(=O)[C@H](CCS(C)(=O)=O)NC(=O)[C@H](N)Cc1c[nH]c2ccccc12)C(=O)N[C@@H](Cc1ccc(N=[N+]=[N-])cc1)C(N)=O` [HT-133, D-Trp-Met(O2)-Asp(Ome)-Phe(4-N3)-NH2] the figure was 8.66%. `CS(=O)(=O)CC[C@H](NC(=O)[C@H](N)Cc1c[nH]c2ccccc12)C(=O)N[C@@H](CC(=O)O)C(=O)N[C@@H](Cc1ccc(Br)cc1)C(N)=O` [HT-68, D-Trp-Met(O2)-Asp-Phe(4-Br)-NH2]: the “Agonistic Activity (%) at 10 μM” value came out at 15.61%. For the compound `C[S+]([O-])CC[C@H](NC(=O)[C@H](N)Cc1c[nH]c2ccccc12)C(=O)N[C@@H](CC(=O)O)C(=O)N[C@@H](Cc1ccc(I)cc1)C(N)=O` (stereo partly drawn) [HT-54, D-Trp-Met(O)-Asp-Phe(4-I)-NH2], the “Agonistic Activity (%) at 10 μM” value was found to be 3.14%.

In the case of `COC(=O)C[C@H](NC(=O)[C@H](CC[S+](C)[O-])NC(=O)[C@H](N)Cc1c[nH]c2ccccc12)C(=O)N[C@@H](Cc1cc(F)cc(F)c1)C(N)=O` (stereo partly drawn) [HT-124, D-Trp-Met(O)t-Asp(Ome)-Phe(3,5-DiF)-NH2], the “Agonistic Activity (%) at 10 μM” value stood at 0.71%. As to `CSCC[C@H](NC(=O)[C@H](N)Cc1c[nH]c2ccccc12)C(=O)N[C@@H](CC(=O)O)C(=O)N[C@@H](Cc1cccc(Br)c1)C(=O)N[C@H](C)C(N)=O` [HT-290, D-Trp-Met-Asp-Phe(3-Br)-D-Ala-NH2] (H-[dW]MD[Phe(3-Br)][dA]-NH2), the EC50 (Fluo-8 calcium flux, 100% control = 20 nM CCK8) was 6.68 µM.
